Test results: publication PMC6600574 (Molecules, 2019)
Entries after “also recorded” stand apart in the source; their conditions may differ. Read-outs that look alike come from different tables or passages of the source.

Assays:
CYP1A2 = biological target: T1, CYP1A2 (Homo sapiens, UniProt P05177); assay: Inhibition of recombinant CYP oxidation (fluorescent coumarin substrate); assay type: in vitro ADME; conditions: read-out: Recombinant CYP IC50 (µM) with 95% confidence intervals
T1 construct: purchased BD Biosciences Discovery Labware (Bedford, MA, USA)
Method: (§1) Incubations were carried out in a total volume of 100 µl of 100 mM Tris-HCl buffer (pH 7.4) in all black, flat-bottom Costar 96-well plates (Corning Incorporated, Corning, NY, USA). […] The samples were then preincubated at 37 °C for 10 min. The reactions were initiated by the addition of NADPH, and 0–10 µM 7-hydroxycoumarin was used as the standard. The fluorescent signal was measured with a Victor^2 1420 multilabel plate counter (PerkinElmer Lifesciences Wallac, Turku, Finland) with excitation and emission wavelengths of 405 and 460 nm, respectively. Fluorescence was monitored every 2 min for 40 min from where the concentration was calculated at the various time points. From these, oxidation rates (µM/min) and the relative remaining activity of the sample at different concentrations were calculated. The data were fit to sigmoidal dose-response curves with nonlinear regression, and IC50 values (the concentration at which the sample reduced the metabolism of the CYP substrate by 50%) were determined. […] This was analyzed using nonlinear equations in Graph Pad Prism, which produced IC50 values and its 95% confidence interval as the results.

CYP2D6 = biological target: T2, CYP2D6 (Homo sapiens, UniProt P10635); assay: as above; assay type: in vitro ADME; conditions: read-out: Recombinant CYP IC50 (µM) with 95% confidence intervals
T2 construct: purchased BD Biosciences Discovery Labware (Bedford, MA, USA)
Method: as §1

recombinant CYP 2C19 = biological target: T3, recombinant CYP 2C19 (Homo sapiens, UniProt P33261); assay: as above; assay type: in vitro ADME; conditions: CYP 2C19, substrate TFD032, 5 nM recombinant CYP, verbascoside 0.4-50 µM
T3 construct: purchased BD Biosciences Discovery Labware (Bedford, MA, USA)
Method: as §1

[1] = test system: CYP 1B1 (liver microsomes); assay: Inhibition of hepatic microsome-catalyzed CYP oxidation; assay type: in vitro ADME, human; conditions: CYP 1B1, substrate TFD008_1, liver microsomes
Method: as §1

[2] = Nitric oxide scavenging assay (nitroprusside, Griess reagent); assay type: biochemical; conditions: 10 mM nitroprusside, 90 min, read-out: NO IC50
Method: Ethanol (10%) was used as a blank. Nitroprusside (50 μL) at a concentration of 10 mM was added to all the wells. The plates were incubated for 90 min at room temperature. After incubation, Griess reagent (100 μL) was added to all the wells, except for the color controls (negative controls) where instead distilled water was added. The absorbances were read at a wavelength of 546 nm using a BIO-TEK Power-Wave XS multiplate reader. From the absorbances an IC50 value was determined.

[3] = In vitro metabolism with human liver microsomes or cytosolic proteins and cofactors (UHPLC-QTOF-MS); assay type: in vitro ADME; conditions: for Level of verbascoside during incubation: 10 µM
Method: From the incubation mixture, 450 µL acetonitrile was added to 150 µL of the samples to stop the reaction at time points of 0, 10, 20, 40, and 60 min. The CYP incubation mixture contained 20% NADPH regenerating system, whereas the glucuronidation incubation mixture contained 0.5 mM UDP-glucuronic acid with 5 mM MgCl2. The sulfonation incubation mixture contained 10 µM PAPS, […], and 500 µg cytosolic protein instead of microsomes, and the methylation incubation mixture contained 0.5 mM S-adenosylmethionine, 5 mM MgCl2, and 500 µg cytosolic protein instead of microsomes. […] The hydrolysis reaction was studied with an incubation mixture that contained 400 µg microsomal protein, or 500 µg cytosolic proteins, and 5 mM MgCl2. A sample with the absence of any enzyme was considered as the blank sample. After stopping the reactions, the samples were centrifuged for 20 min at 10,000× g and stored at −80 °C for analysis by the UHPLC-QTOF-MS system (Agilent Technologies, Waldbronn, Karlsruhe, Germany), which consisted of a 1290 LC system, a Jetstream ESI source, and a 6540 UHD accurate mass quadrupole time-of-flight (QTOF) mass spectrometry. The sample tray was kept at 4 °C during these analyses. […] Two microliters of sample were injected onto a column (Zorbax Eclipse XDB-C8, 2.1 × 100mm, 1.8 µm, Agilent Technologies, Palo Alto, CA, USA) that was kept at 50 °C. Mobile phases, delivered at 0.4 mL/min, consisted of water (eluent A) and methanol (eluent B), both containing 0.1% (v/v) of formic acid. The gradient employed was as follows: 2%→100% B (0–10 min); 100% B (10–14.5 min); 100%→2% B (14.5–14.51 min); and 2% B (14.51–16.50 min).
A Jetstream ESI source, operated in negative ionization mode, used the following conditions: drying gas temperature 325 °C and a flow of 10 L/min, sheath gas temperature 350 °C and a flow of 11 L/min, nebulizer pressure 45 psi, capillary voltage 3500 V, nozzle voltage 1000 V, fragmentary voltage 100 V, and skimmer 45 V. Nitrogen was used as the instrument gas. For data acquisition, a 2 GHz extended dynamic range mode was used from m/z 20 to m/z 1600. Data were collected in the centroid mode at an acquisition rate of 1.67 spectra/s with an abundance threshold of 150. The TOF was calibrated on a daily basis and subsequently operated at a high accuracy (<2 ppm). Continuous mass axis calibration was performed by monitoring two reference ions from an infusion solution throughout the runs. The reference ions were m/z 112.985587 and m/z 966.000725. Identification of the metabolites found in the treatments was based on accurate mass and isotope information (i.e., ratios, abundances, and spacing). The software for the identification of metabolites used was MassHunter Metabolite ID B.04.00 (Agilent Technologies, Santa Clara, CA, USA).

[4] = parameters: method as in Chen et al. (2012) [15]; conditions: DPPH in methanol; ref Chen et al. (2012) [15]; cited from earlier work

T3 sequence (P33261 whole entry): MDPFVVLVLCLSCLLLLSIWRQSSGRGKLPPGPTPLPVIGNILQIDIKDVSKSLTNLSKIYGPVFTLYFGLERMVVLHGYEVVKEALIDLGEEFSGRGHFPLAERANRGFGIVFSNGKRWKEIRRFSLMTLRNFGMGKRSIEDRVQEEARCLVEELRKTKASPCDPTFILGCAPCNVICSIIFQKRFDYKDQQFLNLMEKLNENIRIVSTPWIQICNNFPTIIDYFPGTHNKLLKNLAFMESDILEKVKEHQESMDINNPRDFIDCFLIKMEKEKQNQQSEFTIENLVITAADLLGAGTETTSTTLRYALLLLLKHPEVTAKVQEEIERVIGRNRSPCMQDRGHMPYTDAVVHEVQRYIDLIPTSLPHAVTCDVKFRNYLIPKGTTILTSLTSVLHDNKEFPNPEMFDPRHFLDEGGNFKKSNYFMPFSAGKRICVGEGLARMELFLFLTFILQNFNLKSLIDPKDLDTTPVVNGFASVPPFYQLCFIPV
T1 sequence (P05177 whole entry): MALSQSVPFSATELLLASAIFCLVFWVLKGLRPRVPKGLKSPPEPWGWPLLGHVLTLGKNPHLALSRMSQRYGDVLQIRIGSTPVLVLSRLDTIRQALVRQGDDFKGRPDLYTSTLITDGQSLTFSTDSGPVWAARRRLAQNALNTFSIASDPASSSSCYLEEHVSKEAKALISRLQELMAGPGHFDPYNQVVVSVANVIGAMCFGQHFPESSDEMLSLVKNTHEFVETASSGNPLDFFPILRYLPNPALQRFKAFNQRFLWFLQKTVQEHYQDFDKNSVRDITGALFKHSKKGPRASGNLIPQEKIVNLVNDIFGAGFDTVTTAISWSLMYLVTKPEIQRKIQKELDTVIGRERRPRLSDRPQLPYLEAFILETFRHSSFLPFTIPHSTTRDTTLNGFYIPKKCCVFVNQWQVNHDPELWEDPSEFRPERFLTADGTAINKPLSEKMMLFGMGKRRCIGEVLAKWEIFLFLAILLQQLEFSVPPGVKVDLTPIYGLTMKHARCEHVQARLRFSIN
T2 sequence (P10635 whole entry): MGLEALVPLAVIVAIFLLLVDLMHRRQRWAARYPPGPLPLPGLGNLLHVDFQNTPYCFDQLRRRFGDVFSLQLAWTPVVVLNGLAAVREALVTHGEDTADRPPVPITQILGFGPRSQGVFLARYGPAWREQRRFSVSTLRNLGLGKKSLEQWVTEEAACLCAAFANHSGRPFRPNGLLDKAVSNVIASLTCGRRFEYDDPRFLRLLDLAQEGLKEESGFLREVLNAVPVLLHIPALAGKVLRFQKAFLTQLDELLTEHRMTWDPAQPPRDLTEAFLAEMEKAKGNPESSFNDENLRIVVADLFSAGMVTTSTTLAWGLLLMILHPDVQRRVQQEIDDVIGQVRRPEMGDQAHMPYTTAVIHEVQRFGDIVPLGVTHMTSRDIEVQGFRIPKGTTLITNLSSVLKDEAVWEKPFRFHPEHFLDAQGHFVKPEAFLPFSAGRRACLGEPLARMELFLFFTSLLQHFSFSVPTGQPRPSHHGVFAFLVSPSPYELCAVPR

IC50 at 40 min (CYP1A2; human, recombinant CYP1A2, pH 7.4): > 50 µM | IC50 (CYP1A2): 83 µM | IC50 at 40 min (CYP2D6; human, recombinant CYP2D6, pH 7.4, probe TFD023 (3-(4-phenyl)-7-methoxycoumarin), 10 µM): > 50 µM | IC50 (CYP2D6): 131 µM | Recombinant CYP IC50 (µM) with 95% confidence intervals (recombinant CYP 2C19): Stimulation ^c | Microsomal IC50 (µM) with 95% Confidence Intervals [1]: No inhibition ^b | IC50 [2]: 382 ± 4.15 µM
Structure (SMILES): C[C@@H]1O[C@@H](O[C@@H]2[C@@H](O)[C@H](OCCc3ccc(O)c(O)c3)O[C@H](CO)[C@H]2OC(=O)/C=C/c2ccc(O)c(O)c2)[C@H](O)[C@H](O)[C@H]1O [Verbascoside]
Recombinant CYP IC50 (µM) with 95% confidence intervals (recombinant CYP 2C19; listed as verbascoside): did not inhibit; also recorded: weak ability to stimulate | Level of verbascoside during incubation ([3]; human liver cytosolic protein, PAPS, up to 60 min): decreased | Level of verbascoside during incubation ([3]; human liver cytosolic protein, S-adenosylmethionine, up to 60 min): decreased | Level of verbascoside during incubation ([3]; human liver microsomes, NADPH oxidation incubation): no decrease | Level of verbascoside during incubation ([3]; human liver microsomes, UDP-glucuronic acid, up to 60 min): decreased | Level of verbascoside during incubation ([3]; hydrolysis incubation, microsomal or cytosolic protein without cofactor): no decrease | Metabolites formed ([3]; PAPS incubation, levels increased up to 20 min): three different sulphate conjugates | Metabolites formed ([3]; S-adenosylmethionine incubation, levels increased up to 60 min): five different methylated conjugates | Metabolites formed ([3]; UDP-glucuronic acid incubation with human liver microsomes): No glucuronide conjugate | IC50 [4]: 11.4 µM
